The subject of test [1] is K562 erythroleukemic cells. Kind of test: 55Fe uptake from labeled diferric transferrin in erythroleukemic K562 cells. Particulars: 25 minutes at 37°C. Format: cell-based, human. The method, then:
Human plasma-derived apo-transferrin (Calbiochem 616419, tissue culture grade, pyrogen-free) is supplied lyophilised from 10mM phosphate buffer, pH7.4. The transferrin mutein is expressed, purified and quantified as described above.
For iron-55 uptake from labeled diferric transferrin, K562 erythroleukemic cells, cultured in RPMI cell culture medium under standard conditions (bicarbonate-buffered, 5% (v/v) CO2, antibiotics, 10% (v/v) fetal calf serum) are washed with serum-free medium containing HEPES-buffer and 1 mg/ml of bovine serum albumin and used at a concentration of 10 million cells/ml in this medium. The samples tested are prepared as equimolar concentrations of apo-transferrin mutein. Apo-transferrin mutein is loaded with iron according to a standard procedure (Bates and Schlabach, J Biol Chem, 248, 3228-3232, 1973) using ferric nitrilotriacetate as iron source. Typically 50µl of 1 M NaClO4 is added to 450µl of the transferrin mutein stock-solution (pH is alkaline to neutral). The ^55Fe -NTA-loading-buffer is prepared by mixing 8.5µl 50mM NTA (pH 8.25), 18.9µl 0.1M Tris, 98.8µl Millipore-purified water and 7.5µl ^55FeCl3 in 0.5 N HCl (NEN products). 500µl of transferrin mutein is carefully mixed (dropwise) with the ^55Fe -NTA-loading-buffer and then 310µl of 5mM Hepes. NaOH/0.1M NaClO4 is added. The mixture is incubated at 4°C for 60 min following which it is deslated on a PD-10 column (containing Sephadex G-25) and dialysed. The PD-10 column is equilibrated with 5ml of equilibration buffer (5mM Hepes/NaOH, 0.1M NaClO4, 0.1 g BSA (Amresco)) then washed three times with 5ml of wash buffer (5mM Hepes/NaOH, 0.1M NaClO4). […]
Increasing concentrations of human plasma transferrin or the transferrin mutein sample (0, 25, 100, 200, 400, 800, 1600 nM), labeled with ^55Fe, are mixed with 25 µl of medium. […] The lysates are neutralized with 1 M HCl after overnight lysis, mixed with Readysolv Scintillation cocktail and counted in the Packard Liquid Scintillation Counter. […]

Test [2] concerns the target T1, transferrin receptor 1 (TfR1) (Homo sapiens, UniProt P02786).
T1 construct: purchased AbD Serotec 9110-300
Kind of test: Transferrin receptor 1 binding by Surface Plasmon Resonance (SPR, Biacore). Particulars: fluorescein conjugated sample. From the text:
The receptor binding capability of the recombinant transferrin variants can be determined by Surface Plasmon Resonance (SPR) analysis. The binding activity of a transferrin sample to a transferrin receptor can be measured using surface plasmon resonance (SPR) a non-invasive optical technique in which the SPR response is a measure of change in mass concentration at the detector surface as molecules bind or dissociate. A sample is sent onto the surface of the sensor chip via a micro flow system at a constant flow rate. In this analysis, if the transferrin sample is able to bind to the Transferrin Receptor the mass on the surface sensor chip is increased due to binding between Transferrin Receptor and Transferrin molecules creating a surface plasmon wave, and a shift of the SPR signal proportional to the binding quantity can be detected as a change in the resonance unit (RU). […]
The binding capacity of human serum transferrin to human trabnsferrin receptor 1 may be measured by SPR. […]
The receptor binding capability of the recombinant transferrin variants was assessed by Surface Plasmon Resonance (SPR) analysis. The binding activity of a transferrin sample to transferrin receptor can be measured using surface plasmon resonance (SPR) a non-invasive optical technique in which the SPR response is a measure of change in mass concentration at the detector surface as molecules bind or dissociate. […]
For orientation: In SPR one partner is held on a chip, and binding of the other changes the refractive index at the surface.

T1 sequence (P02786 whole entry): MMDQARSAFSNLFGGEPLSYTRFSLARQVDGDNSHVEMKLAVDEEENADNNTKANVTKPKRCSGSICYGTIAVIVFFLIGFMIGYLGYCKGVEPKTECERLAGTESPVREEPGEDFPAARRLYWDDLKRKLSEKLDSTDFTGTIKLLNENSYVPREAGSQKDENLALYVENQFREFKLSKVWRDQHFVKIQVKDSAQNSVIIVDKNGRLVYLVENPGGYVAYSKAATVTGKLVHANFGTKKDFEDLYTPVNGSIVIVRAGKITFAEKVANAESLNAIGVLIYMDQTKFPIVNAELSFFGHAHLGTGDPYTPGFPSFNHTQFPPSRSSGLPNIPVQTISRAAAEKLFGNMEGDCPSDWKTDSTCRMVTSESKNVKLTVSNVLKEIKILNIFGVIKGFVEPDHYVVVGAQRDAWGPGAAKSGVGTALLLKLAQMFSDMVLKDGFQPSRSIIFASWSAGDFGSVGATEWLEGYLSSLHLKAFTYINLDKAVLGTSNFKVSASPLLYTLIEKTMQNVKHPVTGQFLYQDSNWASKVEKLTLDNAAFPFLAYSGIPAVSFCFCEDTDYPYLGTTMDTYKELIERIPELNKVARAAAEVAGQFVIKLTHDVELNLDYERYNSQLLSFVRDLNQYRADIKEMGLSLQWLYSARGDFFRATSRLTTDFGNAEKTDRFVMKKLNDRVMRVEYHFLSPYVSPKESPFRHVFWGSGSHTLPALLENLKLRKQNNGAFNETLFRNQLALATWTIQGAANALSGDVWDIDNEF

The term Kd denotes a measure of binding affinity in units of concentration. In the case of “Fluorescein conjugated thio-transferrin (S415C, T613A): thiotransferrin (S415C, T613A) conjugated with fluorescein”, the “Specific iron ptake Bmax” value in test [1] (55Fe-labeled sample 0-1600 nM, specific uptake (unspecific binding with hundredfold excess unlabeled diferric transferrin accounted for)) is given as 3246±217 fmol^55Fe/10^6 cells 25min. In test [1] (55Fe-labeled sample 0-1600 nM, total uptake), the “Total Iron Uptake Bmax” value is listed as 4165±216 fmol^55Fe/10^6 cells x 25min. Also, the Kd in test [1] (specific uptake, read-out: Specific iron ptake Kd x) was found to be 189 ± 47 nM. Moreover, the “ability to bind to transferrin receptor 1 (measured by SPR)” value in test [2] is listed as “able to bind to transferrin receptor 1 by SPR analysis in a manner equivalent to the unconjugated sample”.

Source of the values: EP2216341A1, “Transferrin variants and conjugates” (Novozymes Biopharma UK Limited, priority 2009, dated 2010).
